Measurements: ChEMBL document CHEMBL1136505, “Myxovirescin analogues via macrocyclic ring-closing metathesis” (2003)
Converted amounts (≈) assume the structure as drawn. The source made the active and inactive calls. The rule behind the calls is not given here.

Columns and labels:
[1] = system: Schaalia meyeri; assay: Antibacterial activity against Actinomyces meyeri (ATCC 61789) at a concentration of 200 ug/mL; Active; assay type: functional, organism-based
[2] = system: Prevotella bivia; assay: Antibacterial activity against Bacteroides bivus (ATCC 64362) at a concentration of 200 ug/mL; not active; assay type: functional, organism-based
[3] = system: Prevotella buccae; assay: Antibacterial activity against Bacteroides buccae (ATCC 67792) at a concentration of 200 ug/mL; not active; assay type: functional, organism-based; settings: Segatella buccae
[4] = system: Pseudoflavonifractor capillosus; assay: Antibacterial activity against Bacteroides capillosus (ATCC 60802) at a concentration of 200 ug/mL; not active; assay type: functional, organism-based
[5] = system: Bacteroides uniformis; assay: Antibacterial activity against Bacteroides uniformis (ATCC 62723) at a concentration of 200 ug/mL; not active; assay type: functional, organism-based
[6] = system: Hoylesella oralis; assay: Antibacterial activity against Bacteroides oralis (ATCC 72708) at a concentration of 200 ug/mL; Active; assay type: functional, organism-based
[7] = system: Bacteroides ovatus; assay: Antibacterial activity against Bacteroides ovatus (ATCC 66640) at a concentration of 200 ug/mL; Active; assay type: functional, organism-based
[8] = system: Corynebacterium sp.; assay: Antibacterial activity against Corynebacterium sp. (ATCC 68984) at a concentration of 200 ug/mL; Active; assay type: functional, organism-based
[9] = system: Fusobacterium mortiferum; assay: Antibacterial activity against Fusobacterium mortiferum (ATCC 63425) at a concentration of 200 ug/mL; not active; assay type: functional, organism-based
[10] = system: Fusobacterium sp.; assay: Antibacterial activity against Fusobacterium sp.(ATCC 74714) at a concentration of 200 ug/mL; not active; assay type: functional, organism-based
[11] = system: Escherichia coli; assay: Antibacterial activity against Escherichia coli (ATCC NCTC 6571) at a concentration of 200 ug/mL; not active; assay type: functional, organism-based
[12] = system: Pasteurella sp.; assay: Antibacterial activity against Pasteurella sp.(ATCC 67777) at a concentration of 200 ug/mL; not active; assay type: functional, organism-based
[13] = system: Pasteurella sp.; assay: Antibacterial activity against Pasteurella sp.(ATCC 69527) at a concentration of 200 ug/mL; not active; assay type: functional, organism-based
[14] = system: Pasteurella sp.; assay: Antibacterial activity against Pasteurella sp.(ATCC 71886) at a concentration of 200 ug/mL; not active; assay type: functional, organism-based
[15] = system: Pasteurella multocida; assay: Antibacterial activity against Pasteurella multocida (ATCC 61096) at a concentration of 200 ug/mL; not active; assay type: functional, organism-based
[16] = system: Pasteurella multocida; assay: Antibacterial activity against Pasteurella multocida (ATCC 63560) at a concentration of 200 ug/mL; not active; assay type: functional, organism-based
[17] = system: Porphyromonas canoris; assay: Antibacterial activity against Porphyromonas canoris (ATCC NCTC 12835) at a concentration of 200 ug/mL; Active; assay type: functional, organism-based
[18] = system: Porphyromonas canoris; assay: Antibacterial activity against Porphyromonas canoris (ATCC NCTC 12836) at a concentration of 200 ug/mL; Active; assay type: functional, organism-based
[19] = system: Porphyromonas gingivalis; assay: Antibacterial activity against Porphyromonas gingivalis sp.(ATCC D23C) at a concentration of 200 ug/mL; Active; assay type: functional, organism-based
[20] = system: Pasteurella sp.; assay: Antibacterial activity against Pasteurella sp.(ATCC 67535) at a concentration of 200 ug/mL; Active; assay type: functional, organism-based
[21] = system: Propionibacterium; assay: Antibacterial activity against Propionibacterium sp.(ATCC 72661) at a concentration of 200 ug/mL; Active; assay type: functional, organism-based
[22] = system: Staphylococcus aureus; assay: Antibacterial activity against Staphylococcus aureus (ATCC NCTC 6571) at a concentration of 200 ug/mL; Active; assay type: functional, organism-based
[23] = system: Actinomyces sp.; assay: Antibacterial activity against Actinomyces sp.(ATCC 70710) at a concentration of 200 ug/mL; Active; assay type: functional, organism-based
[24] = system: Hoylesella oralis; assay: Antibacterial activity against Bacteroides oralis (ATCC 72708) at a concentration of 200 ug/mL; not active; assay type: functional, organism-based
[25] = system: Bacteroides ovatus; assay: Antibacterial activity against Bacteroides ovatus (ATCC 66640) at a concentration of 200 ug/mL; not active; assay type: functional, organism-based
[26] = system: Porphyromonas gingivalis; assay: Antibacterial activity against Porphyromonas gingivalis sp.(ATCC D23C) at a concentration of 200 ug/mL; assay type: functional, organism-based
[27] = system: Staphylococcus aureus; assay: Antibacterial activity against Staphylococcus aureus (ATCC NCTC 6571) at a concentration of 200 ug/mL; not active; assay type: functional, organism-based
[28] = system: Schaalia meyeri; assay: Minimum inhibitory concentration against Actinomyces meyeri (ATCC 61789) using agar method; assay type: functional
[29] = system: Prevotella bivia; assay: Minimum inhibitory concentration against Bacteroides bivus (ATCC 64362) using agar method; assay type: functional
[30] = system: Pseudoflavonifractor capillosus; assay: Minimum inhibitory concentration against Bacteroides capillosus (ATCC 60802) using agar method; assay type: functional
[31] = system: Hoylesella oralis; assay: Minimum inhibitory concentration against Bacteroides oralis (ATCC 72708) using agar method; assay type: functional
[32] = system: Bacteroides ovatus; assay: Minimum inhibitory concentration against Bacteroides ovatus (ATCC 66640) using agar method; assay type: functional
[33] = system: Corynebacterium sp.; assay: Minimum inhibitory concentration against Corynebacterium sp. (ATCC 68984) using agar method; assay type: functional
[34] = system: Fusobacterium mortiferum; assay: Minimum inhibitory concentration against Fusobacterium mortiferum (ATCC 63425) using agar method; assay type: functional
[35] = system: Escherichia coli; assay: Minimum inhibitory concentration against Escherichia coli (ATCC NCTC 6571) using agar method; assay type: functional
[36] = system: Pasteurella multocida; assay: Minimum inhibitory concentration against Pasteurella multocida (ATCC 61096) using agar method; assay type: functional
[37] = system: Pasteurella multocida; assay: Minimum inhibitory concentration against Pasteurella multocida (ATCC 63560) using agar method; assay type: functional
[38] = system: Porphyromonas gingivalis; assay: Minimum inhibitory concentration against Porphyromonas gingivalis sp.(ATCC D23C) using agar method; assay type: functional
[39] = system: Pasteurella sp.; assay: Minimum inhibitory concentration against Pasteurella sp.(ATCC 69527) using agar method; assay type: functional
[40] = system: Pasteurella sp.; assay: Minimum inhibitory concentration against Pasteurella sp.(ATCC 71886) using agar method; assay type: functional
[41] = system: Staphylococcus aureus; assay: Minimum inhibitory concentration against Staphylococcus aureus (ATCC NCTC 6571) using agar method; assay type: functional
[42] = system: Pasteurella sp.; assay: Minimum inhibitory concentration against Pasteurella sp.(ATCC 67777) using agar method; assay type: functional
[43] = system: Prevotella buccae; assay: Minimum inhibitory concentration against Bacteroides buccae (ATCC 67792) using agar method; assay type: functional; settings: Segatella buccae
[44] = system: Bacteroides uniformis; assay: Minimum inhibitory concentration against Bacteroides uniformis (ATCC 62723) using agar method; assay type: functional
[45] = system: Pasteurella sp.; assay: Minimum inhibitory concentration against Pasteurella sp.(ATCC 67535) using agar method; assay type: functional
[46] = system: Actinomyces sp.; assay: Antibacterial activity against Actinomyces sp.(ATCC 70710) at a concentration of 200 ug/mL; not active; assay type: functional, organism-based
[47] = system: Corynebacterium sp.; assay: Antibacterial activity against Corynebacterium sp. (ATCC 68984) at a concentration of 200 ug/mL; not active; assay type: functional, organism-based
[48] = system: Pasteurella sp.; assay: Antibacterial activity against Pasteurella sp.(ATCC 67535) at a concentration of 200 ug/mL; not active; assay type: functional, organism-based
[49] = system: Propionibacterium; assay: Antibacterial activity against Propionibacterium sp.(ATCC 72661) at a concentration of 200 ug/mL; not active; assay type: functional, organism-based
[50] = system: Actinomyces sp.; assay: Minimum inhibitory concentration against Actinomyces sp.(ATCC 70710) using agar method; assay type: functional
[51] = system: Fusobacterium sp.; assay: Minimum inhibitory concentration against Fusobacterium sp.(ATCC 74714) using agar method; assay type: functional, fusobacterium species
[52] = system: Porphyromonas canoris; assay: Minimum inhibitory concentration against Porphyromonas canoris (ATCC NCTC 12836) using agar method; assay type: functional
[53] = system: Propionibacterium; assay: Minimum inhibitory concentration against Propionibacterium sp.(ATCC 72661) using agar method; assay type: functional
[54] = system: Porphyromonas canoris; assay: Minimum inhibitory concentration against Porphyromonas canoris (ATCC NCTC 12835) using agar method; assay type: functional

Compound: CCC[C@H]1OC(=O)CCCCCCCCCCCCCC/C=C/C[C@H](O)[C@H](O)[C@@H](O)[C@H](O)[C@H](O)CNC1=O
- Activity [1]: Active
- Activity [2]: inactive
- Activity [3]: inactive
- Activity [4]: inactive
- Activity [5]: inactive
- Activity [6]: Active
- Activity [7]: Active
- Activity [8]: Active
- Activity [9]: inactive
- Activity [10]: inactive
- Activity [11]: inactive
- Activity [12]: inactive
- Activity [13]: inactive
- Activity [14]: inactive
- Activity [15]: inactive
- Activity [16]: inactive
- Activity [17]: Active
- Activity [18]: Active
- Activity [19]: Active
- Activity [20]: Active
- Activity [21]: Active
- Activity [22]: Active
- Activity [23]: Active

Compound: CCC[C@@H]1OC(=O)CCCCCCCCCCCCCC/C=C(\C)CC[C@@H](O)[C@@H](O)C[C@H](O)CNC1=O
- Activity [1]: Active
- Activity [2]: inactive
- Activity [3]: inactive
- Activity [4]: inactive
- Activity [5]: inactive
- Activity [24]: inactive
- Activity [25]: inactive
- Activity [8]: Active
- Activity [9]: inactive
- Activity [10]: inactive
- Activity [11]: inactive
- Activity [12]: inactive
- Activity [13]: inactive
- Activity [14]: inactive
- Activity [15]: inactive
- Activity [16]: inactive
- Activity [17]: Active
- Activity [18]: Active
- Activity [26]: inactive
- Activity [20]: Active
- Activity [21]: Active
- Activity [27]: inactive
- Activity [23]: Active

Compound: CCC[C@@H]1OC(=O)[C@@H](C)C[C@H](C)CCCCC(=O)CCC[C@@H](CC)CC/C=C(\COC)CC[C@@H](O)[C@@H](O)C[C@H](O)CNC1=O
- MIC [28]: 12.5 µg/mL (≈ 20 µM)
- MIC [29]: 6.25 µg/mL (≈ 9.99 µM)
- MIC [30]: 12.5 µg/mL (≈ 20 µM)
- MIC [31]: 6.25 µg/mL (≈ 9.99 µM)
- MIC [32]: 12.5 µg/mL (≈ 20 µM)
- MIC [33]: 12.5 µg/mL (≈ 20 µM)
- MIC [34]: > 50 µg/mL
- MIC [35]: 3.12 µg/mL (≈ 4.98 µM)
- MIC [36]: 1.56 µg/mL (≈ 2.49 µM)
- MIC [37]: 0.78 µg/mL (≈ 1.25 µM)
- MIC [38]: 1.56 µg/mL (≈ 2.49 µM)
- MIC [39]: 3.12 µg/mL (≈ 4.98 µM)
- MIC [40]: 0.78 µg/mL (≈ 1.25 µM)
- MIC [41]: > 50 µg/mL
- MIC [42]: 1.56 µg/mL (≈ 2.49 µM)
- MIC [43]: > 50 µg/mL
- MIC [44]: 12.5 µg/mL (≈ 20 µM)
- MIC [45]: 0.78 µg/mL (≈ 1.25 µM)

Compound: CCC[C@@H]1OC(=O)CCCCCCCCCCCCCC/C=C/C[C@H](O)[C@H](O)[C@@H](O)[C@H](O)[C@H](O)CNC1=O
- Activity [1]: Active
- Activity [46]: inactive
- Activity [2]: inactive
- Activity [3]: inactive
- Activity [4]: inactive
- Activity [5]: inactive
- Activity [24]: inactive
- Activity [25]: inactive
- Activity [47]: inactive
- Activity [9]: inactive
- Activity [10]: inactive
- Activity [11]: inactive
- Activity [12]: inactive
- Activity [13]: inactive
- Activity [14]: inactive
- Activity [15]: inactive
- Activity [16]: inactive
- Activity [17]: Active
- Activity [18]: Active
- Activity [26]: inactive
- Activity [48]: inactive
- Activity [49]: inactive
- Activity [27]: inactive

Compound: CCC[C@@H]1OC(=O)[C@@H](C)C[C@H](C)CCCCC(=O)CCC[C@@H](CC)/C=C/C=C(\COC)CC[C@@H](O)[C@@H](O)C[C@H](O)CNC1=O
- MIC [28]: > 50 µg/mL
- MIC [50]: > 50 µg/mL
- MIC [29]: > 50 µg/mL
- MIC [30]: 25 µg/mL (≈ 40.1 µM)
- MIC [31]: > 50 µg/mL
- MIC [32]: > 50 µg/mL
- MIC [33]: > 50 µg/mL
- MIC [34]: 12.5 µg/mL (≈ 20 µM)
- MIC [51]: > 50 µg/mL
- MIC [35]: 6.25 µg/mL (≈ 10 µM)
- MIC [36]: > 50 µg/mL
- MIC [37]: > 50 µg/mL
- MIC [52]: 25 µg/mL (≈ 40.1 µM)
- MIC [38]: 25 µg/mL (≈ 40.1 µM)
- MIC [39]: 25 µg/mL (≈ 40.1 µM)
- MIC [40]: 12.5 µg/mL (≈ 20 µM)
- MIC [53]: > 50 µg/mL
- MIC [41]: > 50 µg/mL
- MIC [42]: 12.5 µg/mL (≈ 20 µM)
- MIC [54]: 25 µg/mL (≈ 40.1 µM)
- MIC [43]: 12.5 µg/mL (≈ 20 µM)
- MIC [44]: > 50 µg/mL
- MIC [45]: 12.5 µg/mL (≈ 20 µM)
